pIC50: −log10 of the molar value. Starred links: 1 amine or outer side, 2 acyl side, 3 side chain; linkers in the order of their positions; H or OH if unused. Non-standard residues stand in square brackets, D forms with d. Residues, ends and D or L forms follow the SMILES beside them. X1 = O=C(CN(C[C@H](O)[C@@H](O)[C@H](O)[C@H](O)CO)[*:1])[*:2]; dBta = N[C@H](Cc1csc2ccccc12)C(=O)O; Chg = N[C@H](C(=O)O)C1CCCCC1

Assay [1] deals with T1, hAT1R (Homo sapiens, UniProt P30556).
T1 sequence (P30556 1-359): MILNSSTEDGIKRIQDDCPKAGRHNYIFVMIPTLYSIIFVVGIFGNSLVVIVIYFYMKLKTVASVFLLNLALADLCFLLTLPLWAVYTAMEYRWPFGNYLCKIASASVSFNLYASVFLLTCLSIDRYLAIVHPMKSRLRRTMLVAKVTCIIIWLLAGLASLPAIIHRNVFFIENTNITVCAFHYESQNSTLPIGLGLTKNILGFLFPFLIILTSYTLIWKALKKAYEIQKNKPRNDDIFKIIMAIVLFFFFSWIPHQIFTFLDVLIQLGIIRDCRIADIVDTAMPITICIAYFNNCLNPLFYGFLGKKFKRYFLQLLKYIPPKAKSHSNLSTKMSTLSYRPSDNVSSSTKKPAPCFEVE
As to the kind of experiment: FLIPR calcium flux assay, Part I: agonist activity. The class given is cell-based. As to conditions: ChanTest hAT1R stable cells; % MPE, percent of the maximal possible effect; read-out: hAT1R Agonist Efficacy Agonist (%) Ave. As to the method:
(§1) AT1 receptor (AT1R) agonists increase intracellular flux of calcium ions. AT1R antagonists can reduce the agonist effect. […] Compounds were first tested for agonism (Part I) followed by addition of the AT1R agonist angiotensin II to test for antagonist activity (Part II). This assay used a stable hAT1R expressing cell line (ChanTest hAT1R; ChanTest Corp A628). Intracellular flux of calcium in response to agonist was measured through real-time measurement of fluorescence induced through the interaction of Ca2+ (released from intracellular stores) and calcium-sensitive dye. In Part I, cells were exposed to varying concentrations of test compounds and immediately measured for agonist activity (EC50 and Efficacy).
(§2) ChanTest hAT1R stable cells were maintained in Ham's F12 containing 10% (v/v) heat inactivated fetal bovine serum (FBS-HI), 4 mM Glutamax, 1% NEAA, 50 ng/mL plasmocin, 400 μg/mL G418 at 37° C. under 5% CO2 in a humidified atmosphere.
(§3) For FLIPR assay, ChanTest hAT1R cells were trypsinized with 6 ml of Trypsin EDTA solution and harvested in phenol-red free DMEM containing 10% FBS-HI, 4 mM Glutamax and counted, spun down and resuspended in the same medium. The cell suspension was added to the wells of 384-well black PDL clear bottom plates at 2.5×10^4 cells/well, 20 μl/well.
(§4) Preparation of Loading Buffer:
(§5) • Loading Buffer: 1 vial of Calcium 5 Bulk Assay reagent was dissolved in 100 ml of 1× HBSS-20 mM Hepes buffer. • Probenecid was resuspended at 1 M in 1 M NaOH. Once the probenecid had gone into solution, an equal volume of H2O was added to make a solution of 500 mM followed by a 1:100 dilution in the Loading Buffer for a working concentration of 5 mM. The pH was adjusted to 7.4 using 1 M NaOH. Loading the Cells with Loading Buffer • Cell plates were removed from the incubator and 25 μl of Loading Buffer containing probenecid (5 mM) added to each well. • Plates were incubated for 1 hour at 37° C. under 5% CO2 in a humidified atmosphere. […] The remaining steps of the assay were carried forward by FLIPR Tetra. A baseline reading was taken at 1-second (s) intervals for 10 s followed by the addition of 5 μl of 10× compounds. The compound-induced fluorescence signal was then measured for 3 minutes with readings taken at 1-s intervals. • The cell plate was removed from the FLIPR and set aside for an additional 17 minutes. • The cell plate was then transferred back to the FLIPR Tetra, along with the 384 well Angiotensin II agonist dilution plate. A baseline reading was taken at 1-second (s) intervals for 10 seconds, followed by the addition of 5.5 μl of 10× Angiotensin II agonist. The agonist-induced fluorescence signal was then measured for 3 minutes with readings taken at 1-s intervals. • Overall, each well in the FLIPR assay was composed of the following components in a total volume of 55.5 μl:
(§6) Time-course results from the FLIPR Calcium 5 assay were expressed as relative fluorescence light units (RFU). The maximum minus minimum values (Max−Min) were used to quantify the strength of the signal. Mean RFU were calculated from replicate values and plotted on the y-axis versus compound concentration on a logarithmic scale on the x-axis, and a single-binding site, four parameter concentration response model: (MIN+((MAX−MIN)/(1+((EC50/x)^Hill)))), was used to perform non-linear regression analysis, generating concentration response curves. Reported parameters included agonist potency EC50 (the concentration causing half-maximal agonist response), antagonist potency IC50 (the concentration causing half-maximal inhibition of the agonist response for antagonist compounds) and efficacy (% MPE: percent of the maximal possible effect).
In general terms: Calcium assays in cells follow changes in intracellular calcium, usually with a dye or a luminescent sensor.

Assay [2] addresses T1, hAT1R. Kind of assay: FLIPR calcium flux assay, Part II: antagonist activity against Angiotensin II. For hAT1R Antagonist Efficacy Antag (%) Ave: Angiotensin II 10 nM final concentration. It is filed as cell-based. The note with it: for Emax: read-out: hAT1R Antagonist Efficacy Antag (%) Ave; for pIC50: read-out: hAT1R Antagonist IC50 Ave. As to the method: as §1, §2, §3, §4, §5, §6

As usually defined, the pIC50 is −log10 of the IC50, conventionally taken in molar units. With `CNCC(=O)N[C@@H](CCCNC(=N)N)C(=O)N[C@H](C(=O)N[C@@H](Cc1cccc(O)c1)C(=O)N[C@H](C(=O)N[C@@H](Cc1c[nH]cn1)C(=O)N1CCC[C@H]1C(=O)N[C@H](Cc1ccccc1Cl)C(=O)O)C(C)C)C(C)C` [Compound 30, Sar-Arg-Val-(m-Tyr)-Val-His-Pro-(D-Phe(2-Cl))—OH] (HELM PEPTIDE1{[Sar].R.V.[O=C([C@H](Cc1cccc(O)c1)N[*:1])[*:2]].V.H.P.[O=C(O)[C@@H](Cc1ccccc1Cl)N[*:1]]}$$$$V2.0), the Emax on hAT1R [1] worked out at 12%. On hAT1R [2], the Emax is 100% and the pIC50 is 7.69.
As to `CNCC(=O)N[C@@H](CCCNC(=N)N)C(=O)N[C@H](C(=O)N[C@@H](Cc1ccc(O)cc1)C(=O)N[C@H](C(=O)N[C@@H](Cc1c[nH]cn1)C(=O)N1CCC[C@H]1C(=O)N[C@H](Cc1ccccc1C)C(=O)O)C(C)C)C(C)C` [Compound 9, Sar-Arg-Val-Tyr-Val-His-Pro-(D-Phe(2-Me))—OH] (HELM PEPTIDE1{[Sar].R.V.Y.V.H.P.[Cc1ccccc1C[C@@H](N[*:1])C(=O)O]}$$$$V2.0), the Emax on hAT1R [1] is 4%; on hAT1R [2] it was 99%. For the same molecule, on hAT1R [2], the pIC50 was 7.86.
The corresponding values for `CNCC(=O)N[C@@H](CCCNC(=N)N)C(=O)N[C@H](C(=O)N[C@@H](Cc1ccc(O)cc1)C(=O)N[C@H](C(=O)N[C@@H](Cc1c[nH]cn1)C(=O)N1CCC[C@H]1C(=O)N[C@H](Cc1ccccc1Cl)C(=O)O)[C@@H](C)OC)C(C)C` [Compound 21, Sar-Arg-Val-Tyr-Thr(Me)-His-Pro-(D-Phe(2-Cl))—OH] are 2%, 99% and 7.97.
For the molecule `CC(C)[C@H](NC(=O)[C@H](CCCNC(=N)N)NC(=O)CNC[C@H](O)[C@@H](O)[C@H](O)[C@H](O)CO)C(=O)N[C@@H](Cc1ccc(O)cc1)C(=O)N[C@H](C(=O)N[C@@H](Cc1c[nH]cn1)C(=O)N1CCC[C@H]1C(=O)N[C@H](Cc1csc2ccccc12)C(=O)O)C(C)C` [Compound 38, Glac-Arg-Val-Tyr-Val-His-Pro-(D-(3-benzothienyl)alanine)-OH] (HELM PEPTIDE1{[O=C(CNC[C@H](O)[C@@H](O)[C@H](O)[C@H](O)CO)[*:2]].R.V.Y.V.H.P.[O=C(O)[C@@H](Cc1csc2ccccc12)N[*:1]]}$$$$V2.0), the results for the Emax at hAT1R [1] and at hAT1R [2] were 5% and 101%, respectively. Also, the pIC50 at hAT1R [2] is 7.73.
As for `CNCC(=O)N[C@@H](CCCNC(=N)N)C(=O)N[C@H](C(=O)N[C@@H](Cc1ccc(O)c(O)c1)C(=O)N[C@H](C(=O)N[C@@H](Cc1c[nH]cn1)C(=O)N1CCC[C@H]1C(=O)N[C@H](Cc1ccccc1Cl)C(=O)O)C(C)C)C(C)C` [Compound 32, Sar-Arg-Val-DOPA-Val-His-Pro-(D-Phe(2-Cl))—OH] (HELM PEPTIDE1{[Sar].R.V.[O=C([C@H](Cc1ccc(O)c(O)c1)N[*:1])[*:2]].V.H.P.[O=C(O)[C@@H](Cc1ccccc1Cl)N[*:1]]}$$$$V2.0), at hAT1R [1], the Emax came out at 5%. For the same molecule, at hAT1R [2], the Emax came to 99% and the pIC50 was 7.62.
The like results for `CC(C)[C@H](NC(=O)[C@H](CCCNC(=N)N)NC(=O)CNC[C@H](O)[C@@H](O)[C@H](O)[C@H](O)CO)C(=O)N[C@@H](Cc1ccc(O)cc1)C(=O)N[C@H](C(=O)N[C@@H](Cc1c[nH]cn1)C(=O)N1CCC[C@H]1C(=O)N[C@H](Cc1cccc2ccccc12)C(=O)O)C(C)C` [Compound 37, Glac-Arg-Val-Tyr-Val-His-Pro-(D-1Nal)-OH] (HELM PEPTIDE1{[O=C(CNC[C@H](O)[C@@H](O)[C@H](O)[C@H](O)CO)[*:2]].R.V.Y.V.H.P.[O=C(O)[C@@H](Cc1cccc2ccccc12)N[*:1]]}$$$$V2.0) were, in that order, 7%, 99% and 7.71.
The corresponding values for `CNCC(=O)N[C@@H](CCCNC(=N)N)C(=O)N[C@H](C(=O)N[C@@H](Cc1ccc(O)cc1)C(=O)N[C@@H](Cc1ccc(O)cc1)C(=O)N[C@@H](Cc1c[nH]cn1)C(=O)N1CCC[C@H]1C(=O)N[C@H](Cc1cccc2ccccc12)C(=O)O)C(C)C` [Compound 12, Sar-Arg-Val-Tyr-Tyr-His-Pro-(D-1Nal)-OH] are 5%, 100% and 8.47.
For the molecule `CC(C)[C@H](NC(=O)[C@H](CCCNC(=N)N)NC(=O)CNC[C@H](O)[C@@H](O)[C@H](O)[C@H](O)CO)C(=O)N[C@@H](Cc1ccc(O)cc1)C(=O)N[C@H](C(=O)N[C@@H](Cc1c[nH]cn1)C(=O)N1CCC[C@H]1C(=O)N[C@H](Cc1csc2ccccc12)C(=O)O)C1CCCCC1` [Compound 41, Glac-Arg-Val-Tyr-Chg-His-Pro-(D-(3-benzothienyl)alanine)-OH] (H-[X1]RVY[Chg]HP[dBta]-OH), the Emax on hAT1R [1] was 5%. On hAT1R [2], the Emax was 101% and the pIC50 is 7.72.
As for `CNCC(=O)N[C@@H](CCCNC(=N)N)C(=O)N[C@H](C(=O)N[C@@H](Cc1ccc(O)c(Cl)c1)C(=O)N[C@H](C(=O)N[C@@H](Cc1c[nH]cn1)C(=O)N1CCC[C@H]1C(=O)N[C@H](Cc1ccccc1Cl)C(=O)O)C(C)C)C(C)C` [Compound 28, Sar-Arg-Val-Tyr(3-Cl)-Val-His-Pro-(D-Phe(2-Cl))—OH] (HELM PEPTIDE1{[Sar].R.V.[O=C([C@H](Cc1ccc(O)c(Cl)c1)N[*:1])[*:2]].V.H.P.[O=C(O)[C@@H](Cc1ccccc1Cl)N[*:1]]}$$$$V2.0), the Emax at hAT1R [1] worked out at 5%; at hAT1R [2] it was 99%. At hAT1R [2], the pIC50 is 7.91.
The corresponding values for `CNCC(=O)N[C@@H](CCCNC(=N)N)C(=O)N[C@H](C(=O)N[C@@H](Cc1ccc(O)cc1)C(=O)N[C@H](C(=O)N[C@@H](Cc1c[nH]cn1)C(=O)N1CCC[C@H]1C(=O)N[C@H](Cc1ccccc1C(F)(F)F)C(=O)O)C(C)C)C(C)C` [Compound 3, Sar-Arg-Val-Tyr-Val-His-Pro-(D-Phe(2-CF3))—OH] (HELM PEPTIDE1{[Sar].R.V.Y.V.H.P.[O=C(O)[C@@H](Cc1ccccc1C(F)(F)F)N[*:1]]}$$$$V2.0) are 5%, 99% and 7.63.
Take `CNCC(=O)N[C@@H](CCCNC(=N)N)C(=O)N[C@H](C(=O)N[C@@H](Cc1ccc(N)cc1)C(=O)N[C@H](C(=O)N[C@@H](Cc1c[nH]cn1)C(=O)N1CCC[C@H]1C(=O)N[C@H](Cc1ccccc1Cl)C(=O)O)C(C)C)C(C)C` [Compound 33, Sar-Arg-Val-Aph-Val-His-Pro-(D-Phe(2-Cl))—OH] (HELM PEPTIDE1{[Sar].R.V.[Nc1ccc(C[C@H](N[*:1])C(=O)[*:2])cc1].V.H.P.[O=C(O)[C@@H](Cc1ccccc1Cl)N[*:1]]}$$$$V2.0): at hAT1R [1], the Emax worked out at 3%. Moreover, at hAT1R [2], the Emax came out at 100% and the negative logarithm of the IC50 (pIC50) is 7.77.
The corresponding values for `CNCC(=O)N[C@@H](CCCNC(=N)N)C(=O)N[C@H](C(=O)N[C@@H](Cc1ccc(O)cc1)C(=O)N[C@H](C(=O)N[C@@H](Cc1c[nH]cn1)C(=O)N1CCC[C@H]1C(=O)N[C@H](Cc1cccc2ccccc12)C(=O)O)C1CCCC1)C(C)C` [Compound 15, Sar-Arg-Val-Tyr-Cpg-His-Pro-(D-1Nal)-OH] (HELM PEPTIDE1{[Sar].R.V.Y.[O=C([C@@H](N[*:1])C1CCCC1)[*:2]].H.P.[O=C(O)[C@@H](Cc1cccc2ccccc12)N[*:1]]}$$$$V2.0) are 6%, 100% and 8.34.

The values are drawn from patent publication US10344054B2, “Angiotensin-1-receptor antagonists” (Ferring B.V., priority 2016, dated 2019).
